# Source: patent US20120283228A1, “2alpha-Methyl and 2beta-Methyl Analogs of 19,26-Dinor-1alpha,25-Dihydroxyvitamin D3 and Their Uses” (WISCONSIN ALUMNI RESEARCH FOUNDATION, priority 2011, published 2012)
# Entries after “also recorded” stand apart in the source; their conditions may differ.
# Assays:
# [1] = test system: Human promyelocytic leukemia (HL60) cells; assay: HL-60 differentiation (nitro blue tetrazolium reduction); format: cell-based
# Method: Serial dilutions were prepared so that a range of drug concentrations could be tested without changing the final concentration of ethanol (≦0.2%) present in the cell cultures.
# Human promyelocytic leukemia (HL60) cells were grown in RPMI-1640 medium containing 10% fetal bovine serus. The cells were incubated at 37° C. in the presence of 5% CO2.
# HL60 cells were plated at 1.2×10^5 cells/ml. Eighteen hours after plating, cells in duplicate were treated with drug. Four days later, the cells were harvested and a nitro blue tetrazolium reduction assay was performed (Collins et al., 1979; J. Ex. Med. 149:969-974). The percentage of differentiated cells was determined by counting a total of 200 cells and recording the number that contained intracellular black-blue formazan deposits Verification of differentiation to monocytic cells was determined by measuring phagocytic activity (data not shown).
# [2] = test system: 24-hydroxylase (24Ohase) gene promoter; assay: In vitro transcription assay in ROS 17/2.8 (bone) cells, luciferase reporter; format: cell-based; settings: more than 1,25(OH)2D3
# Method: Transcription activity was measured in ROS 17/2.8 (bone) cells that were stably transfected with a 24-hydroxylase (24Ohase) gene promoter upstream of a luciferase reporter gene (Arbour et al., 1998). Cells were given a range of doses. Sixteen hours after dosing the cells were harvested and luciferase activities were measured using a luminometer.
# RLU=relative luciferase units.
# [3] = test system: vitamin D-deficient rats; assay: Bone calcium mobilization (serum calcium); format: in vivo, Sprague-Dawley rats; settings: rats on low calcium diet (0.02%)
# Method: (§1) Male, weanling Sprague-Dawley rats were placed on Diet 11 (0.47% Ca) diet +AEK for one week followed by Diet 11 (0.02% Ca) +AEK for 3 weeks. The rats were then switched to a diet containing 0.47% Ca for one week followed by two, weeks on a diet containing 0.02% Ca. Dose administration began during the last week on 0.02% calcium diet. Four consecutive ip doses were given approximately 24 hours apart. Twenty-four hours after the last dose, blood was collected from the severed neck and the concentration of serum calcium determined as a measure of bone calcium mobilization. The first 10 cm of the intestine was also collected for intestinal calcium transport analysis using the everted gut sac method.
# [4] = test system: vitamin D-deficient rats; assay: Intestinal calcium transport (everted gut sac method); format: in vivo, Sprague-Dawley rats
# Method: as §1
# [5] = molecular target: T1, full-length recombinant rat vitamin D receptor (Rattus norvegicus, UniProt P13053)
# T1 sequence (P13053 1-423): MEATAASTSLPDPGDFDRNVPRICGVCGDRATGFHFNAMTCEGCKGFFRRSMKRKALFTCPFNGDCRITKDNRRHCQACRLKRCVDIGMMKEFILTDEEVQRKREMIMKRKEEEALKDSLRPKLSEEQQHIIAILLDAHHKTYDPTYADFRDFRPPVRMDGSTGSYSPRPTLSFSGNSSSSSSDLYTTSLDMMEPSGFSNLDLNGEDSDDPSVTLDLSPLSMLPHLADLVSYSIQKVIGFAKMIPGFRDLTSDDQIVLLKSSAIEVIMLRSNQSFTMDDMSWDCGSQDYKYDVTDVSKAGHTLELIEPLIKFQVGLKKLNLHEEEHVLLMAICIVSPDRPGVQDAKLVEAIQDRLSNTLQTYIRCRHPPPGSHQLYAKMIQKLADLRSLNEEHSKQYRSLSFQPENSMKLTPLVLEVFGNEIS
# Method: (§2) Full-length recombinant rat receptor was expressed in E. coli BL21 (DE3) Codon Plus RIL cells and purified to homogeneity using two different column chromatography systems. The first system was a nickel affinity resin that utilizes the C-terminal histidine tag on this protein. The protein that was eluted from this resin was further purified using ion exchange chromatography (S-Sepharose Fast Flow). Aliquots of the purified protein were quick frozen in liquid nitrogen and stored at −80° C. until use. For use in binding assays, the protein was diluted in TEDK50 (50 mM Tris, 1.5 mM EDTA, pH 7.4, 5 mM DTT, 150 mM KCl) with 0.1% Chaps detergent. The receptor protein and ligand concentration was optimized such that no more than 20% of the added radiolabeled ligand as bound to the receptor.
# (§3) Radiolabeled and unlabeled ligands were added to 100 mcl of the diluted protein at a final ethanol concentration of ≦10%; mixed and incubated overnight on ice to reach binding equilibrium. The following day, 100 mcl of hydroxylapaptite slurry (50%) was added to each tube and mixed at 10-minute intervals for 30 minutes. The hydroxylapaptite was collected by centrifugation and then washed three times with Tris-EDTA buffer (50 mM Tris, 1.5 mM EDTA, pH 7.4) containing 0.5% Titron X-100. After the final wash, the pellets were transferred to scintillation vials containing 4 ml of Biosafe II scintillation cocktail, mixed and placed in a scintillation counter. Total binding was determined from the tubes containing only radiolabeled ligand.
# [6] = molecular target: T1, full-length recombinant rat vitamin D receptor; assay: biochemical; settings: ability to compete with [3H]-1,25(OH)2D3 for binding to the vitamin D receptor, full-length recombinant rat VDR
# Method: as §2, §3
# [7] = rats on low calcium diet (0.02%), 4 ip doses
structure (smiles),measurement,setting,value
"CC(O)CCCC(C)C1CCC2C(=CC=C3CC(O)C(C)C(O)C3)CCCC21C (single isomer, unassigned) [LR-2]",EC50,"[1]; HL-60 cells, read-out: EC50, ability to promote HL-60 cell differentiation",0.1 nM
same,"times more potent than 1,25(OH)2D3 on HL-60 differentiation","[1]; more potent than 1,25(OH)2D3",10 times
same,"times more transcriptional activity than 1α,25-dihydroxyvitamin D3 in bone cells",[2],10 times
same,"mobilization of bone calcium at 7,020 pmol/day","[3]; 7,020 pmol/day for 4 consecutive days",did not result in mobilization of bone calcium
same,"mobilization of bone calcium at 21,060 pmol/day","[3]; 21,060 pmol/day for 4 consecutive days",without any substantial effect
same,activity in mobilizing calcium from bone / serum calcium levels,[3]; all dosages tested,"little, if any, activity"
same,"times less potent than 1,25(OH)2D3 in bone (bone calcium mobilization)",[3]; 4 ip doses,more than 30 times
same,"intestinal calcium transport at 7,020 pmol/day","[4]; 7,020 pmol/day, compared with 1,25(OH)2D3 at 780 pmol/day","some intestinal calcium transport activity, but still not to the same extent as 1,25(OH)2D3"
same,"logs less potent than 1,25(OH)2D3 in the intestine",[4]; [7],approximately one and one
same,"times less potent than 1,25(OH)2D3 in stimulating calcium transport in the gut",[4]; [7],about 10 times
same,"binding to the receptor as compared to 1,25(OH)2D3",[5],bound equally well; also recorded: equivalent
same,Ki,[6],0.08 nM
